Consider five compounds from article PMC4180209 (Arteriosclerosis, thrombosis, and vascular biology, 2014).

Read-outs that look alike come from different tables or passages of the source.

The target of data set [1] is T1, platelet αIIbβ3 (Homo sapiens, UniProt P05106+P08514). The settings on record: cited from earlier work.
In data set [2] the test system is human ADP-induced platelet aggregation. The settings on record: cited from earlier work.
The target in data set [3] is T2, αIIbβ3 (Homo sapiens, UniProt P05106+P08514). The settings on record: cited from earlier work.
Data set [4] deals with T2, αIIbβ3. Nature of the data set: Binding of ligand-induced binding site mAb AP5 to washed platelets. Type of data set: cell-based. The settings on record: for induction of increased binding of mAb AP5 (LIBS epitope in β3 PSI domain): eptifibatide 10 µM, RUC-2 100 µM, RUC-4 100 µM.
Data set [5] deals with T2, αIIbβ3. Nature of the data set: Adhesion of HEK293 cells expressing αIIbβ3 to fibrinogen. It counts as cell-based. The settings on record: for inhibition of binding of cells expressing αIIbβ3 to fibrinogen: HEK293 cells, RUC-2 100 µM, RUC-4 300 µM; for Specificity for αIIbβ3 vs αVβ3: αIIbβ3 cells to fibrinogen vs αVβ3 cells to vitronectin.
Data set [6] addresses αVβ3 (Homo sapiens, UniProt P05106+P06756). Nature of the data set: Adhesion of HEK293 cells expressing αVβ3 to vitronectin. The settings on record: RUC-2 100 µM, RUC-4 300 µM. It counts as cell-based.
Data set [7] deals with hαIIb/mβ3 mice. Nature of the data set: FeCl3 murine carotid artery thrombosis model. Type of data set: in vivo. The settings on record: for platelet counts: hαIIb/mβ3 mice.
In data set [8] the test system is platelets of mice expressing hαIIb/mβ3. Nature of the data set: ADP-induced platelet aggregation after dosing of hαIIb/mβ3 mice. It counts as in vivo.
Data set [9] concerns human ADP-induced platelet aggregation. Nature of the data set: ADP-induced platelet aggregation in platelet-rich plasma. The settings on record: read-out: IC50 ADP-induced platelet aggregation; 5 µM ADP; citrated platelet-rich plasma; n=8. It counts as cell-based.
For data set [10], the target named is T1, platelet αIIbβ3. Nature of the data set: Priming platelet αIIbβ3 to bind fibrinogen. Type of data set: cell-based.
Data set [11] concerns the target T3, murine αIIbβ3 (Mus musculus, UniProt O54890+Q9QUM0). Nature of the data set: Reactivity with murine platelets / inhibition of murine αIIbβ3. It counts as cell-based.
Data set [12] addresses T3, murine αIIbβ3. The settings on record: 1 µM; cited from earlier work.
Data set [13] in a line: Plasma concentrations in hαIIb/mβ3 mice. It counts as in vivo. The settings on record: exception of an outlier value.
A short description of data set [14]: Solubility in aqueous buffer. Type of data set: physicochemical.
Data set [15] concerns ADP (20 µM)-induced platelet aggregation. Nature of the data set: ADP-induced platelet aggregation after IM administration to M. fascicularis. Type of data set: in vivo.
Data set [16] deals with human platelets. Type of data set: in vivo, mice. The settings on record: RUC-4 IV 1.5 mg/kg; laser injury, cremasteric arterioles; intravital microscopy.
The conditions of data set [17]: cited from earlier work.
A short description of data set [18]: Clinical evaluation and platelet counts in M. fascicularis.
Data set [19] relates to hαIIb/mβ3 platelets. The settings on record: read-out: IC50 for hαIIb/mβ3 platelets; data not shown, n=3.
Where [20] appears, read: RUC-2 0.39 mg/kg IP, 20 µM ADP, hαIIb/mβ3 mice.
Setting [21] is: IM 1.9 and 3.85 mg/kg, non-human primates.
The mark [22] stands for this setting: RUC-4 1.2 mg/kg IM, 20 µM ADP, hαIIb/mβ3 mice.

T3 sequence (Q9QUM0 32-1033): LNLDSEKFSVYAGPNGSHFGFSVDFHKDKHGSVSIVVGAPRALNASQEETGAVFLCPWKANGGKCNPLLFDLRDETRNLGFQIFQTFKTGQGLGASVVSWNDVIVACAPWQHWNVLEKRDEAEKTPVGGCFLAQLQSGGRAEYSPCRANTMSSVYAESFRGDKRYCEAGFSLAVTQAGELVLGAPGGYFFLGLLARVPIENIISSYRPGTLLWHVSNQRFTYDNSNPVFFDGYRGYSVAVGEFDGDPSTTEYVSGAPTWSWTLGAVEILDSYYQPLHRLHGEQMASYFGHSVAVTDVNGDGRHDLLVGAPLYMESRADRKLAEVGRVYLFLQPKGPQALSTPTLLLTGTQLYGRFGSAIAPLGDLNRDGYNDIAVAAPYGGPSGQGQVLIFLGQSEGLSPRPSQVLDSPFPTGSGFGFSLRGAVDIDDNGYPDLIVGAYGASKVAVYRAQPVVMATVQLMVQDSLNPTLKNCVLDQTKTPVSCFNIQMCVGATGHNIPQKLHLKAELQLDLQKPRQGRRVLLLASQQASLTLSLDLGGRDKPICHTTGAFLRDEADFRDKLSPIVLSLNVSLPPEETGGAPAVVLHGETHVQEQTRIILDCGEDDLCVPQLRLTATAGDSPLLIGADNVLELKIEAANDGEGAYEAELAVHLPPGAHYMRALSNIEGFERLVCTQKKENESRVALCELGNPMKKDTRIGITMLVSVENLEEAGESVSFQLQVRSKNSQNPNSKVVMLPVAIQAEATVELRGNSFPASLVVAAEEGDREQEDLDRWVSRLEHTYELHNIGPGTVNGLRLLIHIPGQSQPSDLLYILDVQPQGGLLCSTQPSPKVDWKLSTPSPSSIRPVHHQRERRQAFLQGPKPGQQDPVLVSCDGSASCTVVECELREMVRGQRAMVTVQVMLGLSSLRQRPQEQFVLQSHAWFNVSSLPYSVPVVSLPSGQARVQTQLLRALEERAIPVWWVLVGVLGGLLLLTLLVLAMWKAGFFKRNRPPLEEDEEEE
T3 sequence (O54890 26-787): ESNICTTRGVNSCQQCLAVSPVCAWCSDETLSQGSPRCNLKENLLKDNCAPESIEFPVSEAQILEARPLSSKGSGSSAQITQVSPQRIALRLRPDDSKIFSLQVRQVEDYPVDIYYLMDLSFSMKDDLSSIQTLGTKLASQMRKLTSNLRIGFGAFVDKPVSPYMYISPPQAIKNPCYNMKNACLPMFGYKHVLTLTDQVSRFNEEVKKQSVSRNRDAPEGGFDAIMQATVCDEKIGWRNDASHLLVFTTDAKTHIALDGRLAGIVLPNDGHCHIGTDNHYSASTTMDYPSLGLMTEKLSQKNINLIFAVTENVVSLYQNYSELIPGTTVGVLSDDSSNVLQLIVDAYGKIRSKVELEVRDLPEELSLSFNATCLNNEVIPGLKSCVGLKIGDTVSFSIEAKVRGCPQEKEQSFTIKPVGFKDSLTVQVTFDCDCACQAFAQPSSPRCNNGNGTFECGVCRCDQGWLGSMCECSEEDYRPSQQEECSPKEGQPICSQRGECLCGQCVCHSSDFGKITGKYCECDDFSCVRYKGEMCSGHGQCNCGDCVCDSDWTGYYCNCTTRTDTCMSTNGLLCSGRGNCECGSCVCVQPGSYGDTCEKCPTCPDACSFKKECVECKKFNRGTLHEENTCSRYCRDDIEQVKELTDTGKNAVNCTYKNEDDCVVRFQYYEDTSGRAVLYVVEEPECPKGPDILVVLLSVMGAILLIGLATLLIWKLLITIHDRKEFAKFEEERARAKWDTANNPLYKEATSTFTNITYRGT
T2 sequence (P08514 32-887 limits assumed): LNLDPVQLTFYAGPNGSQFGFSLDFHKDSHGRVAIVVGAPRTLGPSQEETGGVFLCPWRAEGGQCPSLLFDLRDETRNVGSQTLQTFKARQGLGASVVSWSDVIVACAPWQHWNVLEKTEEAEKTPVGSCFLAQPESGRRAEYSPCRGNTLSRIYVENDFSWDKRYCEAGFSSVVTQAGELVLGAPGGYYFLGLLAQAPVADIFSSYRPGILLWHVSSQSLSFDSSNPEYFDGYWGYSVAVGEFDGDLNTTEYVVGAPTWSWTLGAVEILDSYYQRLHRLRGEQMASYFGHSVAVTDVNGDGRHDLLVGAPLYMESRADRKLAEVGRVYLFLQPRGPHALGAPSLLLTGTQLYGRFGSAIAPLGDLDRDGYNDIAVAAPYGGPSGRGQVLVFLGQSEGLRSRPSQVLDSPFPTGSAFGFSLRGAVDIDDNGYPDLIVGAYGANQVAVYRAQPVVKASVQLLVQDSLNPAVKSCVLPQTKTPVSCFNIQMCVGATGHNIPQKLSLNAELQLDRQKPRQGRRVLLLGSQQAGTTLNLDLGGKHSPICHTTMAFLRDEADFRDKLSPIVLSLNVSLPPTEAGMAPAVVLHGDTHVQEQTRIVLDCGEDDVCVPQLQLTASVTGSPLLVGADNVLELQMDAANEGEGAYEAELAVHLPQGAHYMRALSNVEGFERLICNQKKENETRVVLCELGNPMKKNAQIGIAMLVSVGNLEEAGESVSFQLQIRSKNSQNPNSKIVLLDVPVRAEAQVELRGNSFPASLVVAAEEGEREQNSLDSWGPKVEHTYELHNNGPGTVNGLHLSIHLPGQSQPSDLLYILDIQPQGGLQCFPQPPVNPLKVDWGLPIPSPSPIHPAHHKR
T2 sequence (P08514 891-1039 partner limits assumed): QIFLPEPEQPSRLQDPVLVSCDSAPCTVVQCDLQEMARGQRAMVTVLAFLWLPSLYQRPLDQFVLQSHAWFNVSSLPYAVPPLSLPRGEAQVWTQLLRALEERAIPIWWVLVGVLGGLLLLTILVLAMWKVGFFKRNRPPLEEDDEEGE
T2 sequence (P05106 27-788): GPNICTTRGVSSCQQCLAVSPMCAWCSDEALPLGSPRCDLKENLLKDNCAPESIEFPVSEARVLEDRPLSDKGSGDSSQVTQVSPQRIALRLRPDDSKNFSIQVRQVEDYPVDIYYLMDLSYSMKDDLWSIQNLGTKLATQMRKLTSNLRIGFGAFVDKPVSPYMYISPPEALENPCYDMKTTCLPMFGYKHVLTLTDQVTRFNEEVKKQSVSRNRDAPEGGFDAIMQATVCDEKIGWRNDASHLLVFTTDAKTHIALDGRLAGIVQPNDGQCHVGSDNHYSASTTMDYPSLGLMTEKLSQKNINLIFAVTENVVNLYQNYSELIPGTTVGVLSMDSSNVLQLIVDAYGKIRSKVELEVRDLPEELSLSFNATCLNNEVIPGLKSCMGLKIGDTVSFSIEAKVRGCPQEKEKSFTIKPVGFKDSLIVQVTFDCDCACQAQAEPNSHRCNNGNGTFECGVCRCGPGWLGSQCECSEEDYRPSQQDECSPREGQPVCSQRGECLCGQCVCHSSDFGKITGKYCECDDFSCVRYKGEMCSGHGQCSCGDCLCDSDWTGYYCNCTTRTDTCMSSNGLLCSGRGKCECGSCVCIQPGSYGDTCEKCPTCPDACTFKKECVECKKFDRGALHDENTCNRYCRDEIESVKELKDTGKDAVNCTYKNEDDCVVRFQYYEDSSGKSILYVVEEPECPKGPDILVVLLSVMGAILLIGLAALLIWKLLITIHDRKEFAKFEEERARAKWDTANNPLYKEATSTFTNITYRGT
T1 sequence (P08514 32-887 limits assumed): as the sequence (P08514 32-887 limits assumed) above
T1 sequence (P08514 891-1039 partner limits assumed): as the sequence (P08514 891-1039 partner limits assumed) above
T1 sequence (P05106 27-788): as the sequence (P05106 27-788) above
Sequence of αVβ3 (P06756 31-889 limits assumed): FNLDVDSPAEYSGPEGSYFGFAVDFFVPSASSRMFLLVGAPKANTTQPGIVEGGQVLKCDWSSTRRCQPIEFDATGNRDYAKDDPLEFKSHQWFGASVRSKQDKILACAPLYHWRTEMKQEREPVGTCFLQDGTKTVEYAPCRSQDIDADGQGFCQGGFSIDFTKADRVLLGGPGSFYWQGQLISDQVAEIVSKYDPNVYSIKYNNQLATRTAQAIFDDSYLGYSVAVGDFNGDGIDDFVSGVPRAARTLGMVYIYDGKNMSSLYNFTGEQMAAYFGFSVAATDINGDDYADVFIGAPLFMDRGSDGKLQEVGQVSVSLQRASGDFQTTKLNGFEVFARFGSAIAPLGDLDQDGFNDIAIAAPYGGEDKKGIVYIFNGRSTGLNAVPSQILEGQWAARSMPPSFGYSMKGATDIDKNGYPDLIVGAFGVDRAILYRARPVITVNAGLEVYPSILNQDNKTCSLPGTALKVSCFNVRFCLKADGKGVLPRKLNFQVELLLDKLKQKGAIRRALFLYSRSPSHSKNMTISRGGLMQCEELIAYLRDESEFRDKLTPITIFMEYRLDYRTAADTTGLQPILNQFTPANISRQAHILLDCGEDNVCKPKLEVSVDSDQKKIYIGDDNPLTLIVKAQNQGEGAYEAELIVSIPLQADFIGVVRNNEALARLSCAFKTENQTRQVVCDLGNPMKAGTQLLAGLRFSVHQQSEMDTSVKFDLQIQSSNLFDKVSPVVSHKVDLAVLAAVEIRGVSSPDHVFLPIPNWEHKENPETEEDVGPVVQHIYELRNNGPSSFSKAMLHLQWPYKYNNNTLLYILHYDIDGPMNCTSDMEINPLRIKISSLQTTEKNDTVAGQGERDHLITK
Sequence of αVβ3 (P06756 891-1048 partner limits assumed): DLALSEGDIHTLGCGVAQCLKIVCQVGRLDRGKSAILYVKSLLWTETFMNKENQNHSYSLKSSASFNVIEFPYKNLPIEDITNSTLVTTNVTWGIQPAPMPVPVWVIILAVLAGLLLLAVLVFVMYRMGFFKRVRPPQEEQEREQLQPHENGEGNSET
Sequence of αVβ3 (P05106 27-788): as the sequence (P05106 27-788) above

Take `CCc1nn2c(=O)cc(N3CCNCC3)nc2s1` [RUC-1]: the “priming of the receptor to bind the ligand fibrinogen” value (from here on “priming of the receptor”) in data set [1] is on record as “neither RUC-1 nor RUC-2 primed the receptor”. For the same compound, the IC50 in data set [2] is 13000 nM. Moreover, the “conformational changes in β3 detectable by a conformation-specific monoclonal antibody or by electron microscopy” value in data set [3] is given as “nor did they induce conformational changes in β3”.
Take `NCC(=O)Nc1cccc(-c2nn3c(=O)cc(N4CCNCC4)nc3s2)c1` [RUC-2]: in [4], the “Ability to Induce conformational changes in αIIbβ3 identifiable by LIBS mAb” value is recorded as “No” and the “induction of increased binding of mAb AP5 (LIBS epitope in β3 PSI domain)” value was “did not induce increased binding”. In addition, in data set [1], the “priming of the receptor” value is reported as “neither RUC-1 nor RUC-2 primed the receptor”. In addition, in data set [5], the “inhibition of binding of cells expressing αIIbβ3 to fibrinogen” value was “inhibiting the binding of cells expressing αIIbβ3 to fibrinogen” and the “Specificity for αIIbβ3 vs αVβ3” value was “Yes”. Besides, in [6], the “inhibition of binding of cells expressing αVβ3 to vitronectin” value is on record as “inability to inhibit”. Also, the “mice protected from vaso-occlusion” value in [7] (RUC-2 3.85 mg/kg IP, 20% FeCl3 for 3 minutes, 20 minutes after dosing) was 8/8. Also, the platelet counts in data set [7] (RUC-2 3.85 mg/kg IP) is 677±132 × 10^3 platelets per µl. In addition, in data set [2], the IC50 is roughly 90 nM and the “fold more potent than RUC-1” value is recorded as ~ 100 fold. Besides, in [8] (setting [20]), the “time at which return of the aggregation response begins” value was found to be 45 min and the “time to complete inhibition of platelet aggregation” value was no more than 15 min. The “time to complete inhibition of platelet aggregation” value in [8] (RUC-2 3.85 mg/kg IP, 20 µM ADP, hαIIb/mβ3 mice) is no more than 15 min. Further, the “platelet aggregation at the 45 minute time point” value in data set [8] (RUC-2 3.85 mg/kg IP) is reported as “complete inhibition of platelet aggregation in all animals”. Further, the IC50 in data set [9] is 95 ± 20 nM. In addition, the “Ability to prime αIIbβ3 to bind fibrinogen” value in data set [10] is on record as “No”. For the same compound, in data set [3], the “conformational changes in β3 detectable by a conformation-specific monoclonal antibody or by electron microscopy” value is “nor did they induce conformational changes in β3”. Besides, the “Reactivity with murine platelets” value in data set [11] was “No”. For the same compound, in [12], the “inhibition of murine αIIbβ3” value is recorded as “does not inhibit”. Moreover, in data set [13] (RUC-2 IP), the “time to maximum plasma concentration” value amounted to 15 min. Further, in data set [14], the “Solubility in aqueous buffer at pH 7.4” value is listed as 0.068–0.092 mg/ml.
Consider `NCC(=O)Nc1cncc(-c2nn3c(=O)cc(N4CCNCC4)nc3s2)c1` [RUC-4], for which, in data set [4], the “Ability to Induce conformational changes in αIIbβ3 identifiable by LIBS mAb” value was “No” and the “induction of increased binding of mAb AP5 (LIBS epitope in β3 PSI domain)” value was “did not induce increased binding”. In data set [5], the “inhibition of binding of cells expressing αIIbβ3 to fibrinogen” value is reported as “inhibiting the binding of cells expressing αIIbβ3 to fibrinogen” and the “Specificity for αIIbβ3 vs αVβ3” value is given as “Yes”. The “inhibition of binding of cells expressing αVβ3 to vitronectin” value in [6] is given as “inability to inhibit”. Also, the “time at which return toward normal aggregation is evident” value in data set [15] (1.0 mg/kg IM, 20 µM ADP) is 2 h. In [15] (1.0 mg/kg IM, 15 minutes), the “inhibition of aggregation at 15 minutes” value is recorded as “partial”. Further, in [15] (1.93 mg/kg IM, 20 µM ADP), the “time at which aggregation response began to return to normal” value is no more than 4.5 h and the “time to complete inhibition of aggregation” value was no more than 15 min. In addition, the “time to complete inhibition of aggregation” value in [15] (3.86 mg/kg IM, 20 µM ADP) is no more than 15 min. Also, in data set [15] (setting [21]), the “dose-dependent return of platelet aggregation after” value is 4.5 to 24 h and the “time to complete inhibition of platelet aggregation” value is no more than 15 min. For the same compound, in data set [7] (RUC-4 1.2 mg/kg IM, 20% FeCl3 for 3 minutes, 20 minutes after dosing), the “mice developing occlusion during the experiment” value is listed as 2/11. The platelet counts in [7] (RUC-4 1.2 mg/kg IM) was 674±176 × 10^3 platelets per µl. In data set [8] (setting [22]), the “time of complete inhibition of platelet aggregation” value is 5 min and the “time of partial return of aggregation” value was 4 h. Besides, the “platelet aggregation at the 45 minute time point” value in [8] (RUC-4 1.2 mg/kg IM) is given as “complete inhibition of platelet aggregation in all animals”. For the same compound, the IC50 in data set [9] turned out to be 57 ± 10 nM. In addition, the “Ability to prime αIIbβ3 to bind fibrinogen” value in [10] was “No”. Besides, the “decrease in thrombus formation” value in data set [16] is greater than 80%. Moreover, the “fold more soluble than RUC-2” value in [17] is given as “more than 500 fold”. The “Reactivity with murine platelets” value in data set [11] is on record as “No”. In data set [11] (data not shown), the “inhibition of murine αIIbβ3” value is “shares this property”. In addition, in data set [18] (3.85 mg/kg IM), the bleeding observation entry is recorded as “Transient gum bleeding”. In addition, the “clinical evaluation (tolerability)” value in data set [18] (IM 3.86, 1.93 and 1.0 mg/kg) is recorded as “well tolerated”. The “platelet counts throughout the 24 hour period” value in [18] (IM 3.86, 1.93 and 1.0 mg/kg, 24 hour) is recorded as “remained stable”. The “time to maximum plasma concentration” value in data set [13] (RUC-4 IM) worked out at 5 min. The IC50 in [19] was roughly 10 nM. In addition, the “fold more soluble than RUC-2 in aqueous buffer at neutral pH” value in [14] (neutral pH) is listed as “more than 500 fold”. Moreover, the “Solubility in aqueous buffer at pH 7.4” value in data set [14] is listed as 60–80 mg/ml.
Turning to `CCCCS(=O)(=O)N[C@@H](Cc1ccc(OCCCCC2CCNCC2)cc1)C(=O)O` [tirofiban, reference compound], the “priming of the receptor” value in data set [1] was “unlike eptifibatide and tirofiban, neither RUC-1 nor RUC-2 primed the receptor”.
Consider eptifibatide [reference compound], for which the “priming of the receptor” value in [1] is “unlike eptifibatide and tirofiban, neither RUC-1 nor RUC-2 primed the receptor”. The “fold higher affinity for αIIbβ3 than RUC-4 as judged by IC50 for platelet aggregation” value in data set [2] is listed as “more than 4 fold”.
